Results as given in US20240132431A1, “METHOD FOR ALKYLATING ACIDIC FUNCTIONAL GROUP” (Chugai Seiyaku Kabushiki Kaisha, priority 2021, published 2024).

Target: T1, Bcl-2 protein (Recombinant Human Bcl-2 Protein) (Homo sapiens, UniProt P10415)
T1 construct: purchased Novus NBP2-34889
Test: Binding evaluation of mixture library compounds to Bcl-2 using AS-MS (affinity selection mass spectrometry)
How it was run: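 Readout is ASMS Ratio (%), (A−C)/B×100, from reversed-phase LC/MS of SEC-passed extracts, with protein-free unfiltered standard (B) and protein-free SEC blank (C). Recombinant human Bcl-2 at 20 μM final met ~1200 pooled compounds at […] each for 1 h, 23° C., dark, in Tris-HCl pH 7.4 buffer.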

T1 sequence (P10415 whole entry): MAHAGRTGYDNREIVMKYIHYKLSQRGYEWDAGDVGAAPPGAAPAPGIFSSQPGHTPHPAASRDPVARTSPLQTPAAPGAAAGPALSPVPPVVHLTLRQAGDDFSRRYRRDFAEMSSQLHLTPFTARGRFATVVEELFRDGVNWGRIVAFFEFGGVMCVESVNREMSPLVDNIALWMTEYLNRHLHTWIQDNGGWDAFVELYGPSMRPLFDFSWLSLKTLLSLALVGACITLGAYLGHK

SMILES | ASMS ratio (%) (n = 1) | ASMS ratio (%) (n = 2)
CCOc1cncc(-c2ccccc2CCC(=O)N2CCN(c3ccc(C(=O)NS(=O)(=O)c4ccc(NCCSc5ccccc5)c(C(F)(F)F)c4)cc3)CC2)c1 [B2R034-01, 4-[4-[3-[2-(5-Ethoxypyridin-3-yl)phenyl]propanoyl]piperazin-1-yl]-N-[4-(2-phenylsulfanylethylamino)-3-(trifluoromethyl)phenyl]sulfonylbenzamide] | 0.1 | −1.3
CCOc1cccc(-c2ccc(C(=O)N3CCN(c4ccc(C(=O)NS(=O)(=O)c5ccc(NCCSc6ccccc6)c(C(F)(F)F)c5)cc4)CC3)c3ccccc23)c1 [B2R035-01, 4-[4-[4-(3-Ethoxyphenyl)naphthalene-1-carbonyl]piperazin-1-yl]-N-[4-(2-phenylsulfanylethylamino)-3-(trifluoromethyl)phenyl]sulfonylbenzamide] | 8.3 | 0.9
CCOc1cncc(-c2ccc(C(=O)N3CCN(c4ccc(C(=O)NS(=O)(=O)c5ccc(NCCSc6ccccc6)c(C(F)(F)F)c5)cc4)CC3)c3ccccc23)c1 [B2R036-01, 4-[4-[4-(5-Ethoxypyridin-3-yl)naphthalene-1-carbonyl]piperazin-1-yl]-N-[4-(2-phenylsulfanylethylamino)-3-(trifluoromethyl)phenyl]sulfonylbenzamide] | 3.2 | −0.8
CCOc1cccc(-c2cc(C(=O)N3CCN(c4ccc(C(=O)NS(=O)(=O)c5ccc(NCCSc6ccccc6)c(C(F)(F)F)c5)cc4)CC3)cc(C(C)(C)C)c2)c1 [B2R037-01, 4-[4-[3-tert-Butyl-5-(3-ethoxyphenyl)benzoyl]piperazin-1-yl]-N-[4-(2-phenylsulfanylethylamino)-3-(trifluoromethyl)phenyl]sulfonylbenzamide] | 6.3 | −7.0
CCOc1cncc(-c2cc(C(=O)N3CCN(c4ccc(C(=O)NS(=O)(=O)c5ccc(NCCSc6ccccc6)c(C(F)(F)F)c5)cc4)CC3)cc(C(C)(C)C)c2)c1 [B2R038-01, 4-[4-[3-tert-Butyl-5-(5-ethoxypyridin-3-yl)benzoyl]piperazin-1-yl]-N-[4-(2-phenylsulfanylethylamino)-3-(trifluoromethyl)phenyl]sulfonylbenzamide] | 7.1 | −6.0
CCOc1cccc(-c2cc(C(=O)N3CCN(c4ccc(C(=O)NS(=O)(=O)c5ccc(NCCSc6ccccc6)c(C(F)(F)F)c5)cc4)CC3)cc(C(F)(F)F)c2)c1 [B2R039-01, 4-[4-[3-(3-Ethoxyphenyl)-5-(trifluoromethyl)benzoyl]piperazin-1-yl]-N-[4-(2-phenylsulfanylethylamino)-3-(trifluoromethyl)phenyl]sulfonylbenzamide] | 9.7 | −4.8
CCOc1cncc(-c2cc(C(=O)N3CCN(c4ccc(C(=O)NS(=O)(=O)c5ccc(NCCSc6ccccc6)c(C(F)(F)F)c5)cc4)CC3)cc(C(F)(F)F)c2)c1 [B2R040-01, 4-[4-[3-(5-Ethoxypyridin-3-yl)-5-(trifluoromethyl)benzoyl]piperazin-1-yl]-N-[4-(2-phenylsulfanylethylamino)-3-(trifluoromethyl)phenyl]sulfonylbenzamide] | 2.6 | 0.2
CCOc1cccc(C#Cc2cc(C(=O)N3CCN(c4ccc(C(=O)NS(=O)(=O)c5ccc(NCCSc6ccccc6)c(C(F)(F)F)c5)cc4)CC3)cc(C(F)(F)F)c2)c1 [B2R041-01, 4-[4-[3-[2-(3-Ethoxyphenyl)ethynyl]-5-(trifluoromethyl)benzoyl]piperazin-1-yl]-N-[4-(2-phenylsulfanylethylamino)-3-(trifluoromethyl)phenyl]sulfonylbenzamide] | 18.0 | 0.0
CCOc1cncc(C#Cc2cc(C(=O)N3CCN(c4ccc(C(=O)NS(=O)(=O)c5ccc(NCCSc6ccccc6)c(C(F)(F)F)c5)cc4)CC3)cc(C(F)(F)F)c2)c1 [B2R042-01, 4-[4-[3-[2-(5-Ethoxypyridin-3-yl)ethynyl]-5-(trifluoromethyl)benzoyl]piperazin-1-yl]-N-[4-(2-phenylsulfanylethylamino)-3-(trifluoromethyl)phenyl]sulfonylbenzamide] | 3.4 | 6.0
CCOc1cccc(-c2cnn(-c3cc(C(=O)N4CCN(c5ccc(C(=O)NS(=O)(=O)c6ccc(NCCSc7ccccc7)c(C(F)(F)F)c6)cc5)CC4)cc(C(F)(F)F)c3)c2)c1 [B2R043-01, 4-[4-[3-[4-(3-Ethoxyphenyl)pyrazol-1-yl]-5-(trifluoromethyl)benzoyl]piperazin-1-yl]-N-[4-(2-phenylsulfanylethylamino)-3-(trifluoromethyl)phenyl]sulfonylbenzamide] | 3.4 | −9.0
CCOc1cncc(-c2cnn(-c3cc(C(=O)N4CCN(c5ccc(C(=O)NS(=O)(=O)c6ccc(NCCSc7ccccc7)c(C(F)(F)F)c6)cc5)CC4)cc(C(F)(F)F)c3)c2)c1 [B2R044-01, 4-[4-[3-[4-(5-Ethoxypyridin-3-yl)pyrazol-1-yl]-5-(trifluoromethyl)benzoyl]piperazin-1-yl]-N-[4-(2-phenylsulfanylethylamino)-3-(trifluoromethyl)phenyl]sulfonylbenzamide] | −3.7 | −4.1
CCOc1cccc(-c2ccc(CN3CCN(c4ccc(C(=O)NS(=O)(=O)c5ccc(NCCSc6ccccc6)c(C(F)(F)F)c5)cc4)CC3)cc2C)c1 [B2R047-01, 4-[4-[[4-(3-Ethoxyphenyl)-3-methylphenyl]methyl]piperazin-1-yl]-N-[4-(2-phenylsulfanylethylamino)-3-(trifluoromethyl)phenyl]sulfonylbenzamide] | 6.6 | −7.8
CCOc1cncc(-c2ccc(CN3CCN(c4ccc(C(=O)NS(=O)(=O)c5ccc(NCCSc6ccccc6)c(C(F)(F)F)c5)cc4)CC3)cc2C)c1 [B2R048-01] | 9.2 | 7.5
CCOc1cccc(-c2ccc(CN3CCN(c4ccc(C(=O)NS(=O)(=O)c5ccc(NCCSc6ccccc6)c(C(F)(F)F)c5)cc4)CC3)c(CC)c2)c1 [B2R049-01, 4-[4-[[4-(3-Ethoxyphenyl)-2-ethylphenyl]methyl]piperazin-1-yl]-N-[4-(2-phenylsulfanylethylamino)-3-(trifluoromethyl)phenyl]sulfonylbenzamide] | 7.5 | −5.5
CCOc1cncc(-c2ccc(CN3CCN(c4ccc(C(=O)NS(=O)(=O)c5ccc(NCCSc6ccccc6)c(C(F)(F)F)c5)cc4)CC3)c(CC)c2)c1 [B2R050-01, 4-[4-[[4-(5-Ethoxypyridin-3-yl)-2-ethylphenyl]methyl]piperazin-1-yl]-N-[4-(2-phenylsulfanylethylamino)-3-(trifluoromethyl)phenyl]sulfonylbenzamide] | 0.0 | 0.0
CCOc1cccc(-c2ccc(CN3CCN(c4ccc(C(=O)NS(=O)(=O)c5ccc(NCCSc6ccccc6)c(C(F)(F)F)c5)cc4)CC3)cc2F)c1 [B2R051-01, 4-[4-[[4-(3-Ethoxyphenyl)-3-fluorophenyl]methyl]piperazin-1-yl]-N-[4-(2-phenylsulfanylethylamino)-3-(trifluoromethyl)phenyl]sulfonylbenzamide] | 12.7 | −1.8
CCOc1cncc(-c2ccc(CN3CCN(c4ccc(C(=O)NS(=O)(=O)c5ccc(NCCSc6ccccc6)c(C(F)(F)F)c5)cc4)CC3)cc2F)c1 [B2R052-01, 4-[4-[[4-(5-Ethoxypyridin-3-yl)-3-fluorophenyl]methyl]piperazin-1-yl]-N-[4-(2-phenylsulfanylethylamino)-3-(trifluoromethyl)phenyl]sulfonylbenzamide] | 0.0 | −7.4
CCOc1cccc(-c2ccc(CN3CCN(c4ccc(C(=O)NS(=O)(=O)c5ccc(NCCSc6ccccc6)c(C(F)(F)F)c5)cc4)CC3)c(OC)c2)c1 [B2R053-01, 4-[4-[[4-(3-Ethoxyphenyl)-2-methoxyphenyl]methyl]piperazin-1-yl]-N-[4-(2-phenylsulfanylethylamino)-3-(trifluoromethyl)phenyl]sulfonylbenzamide] | −15.0 | 0.0
CCOc1cncc(-c2ccc(CN3CCN(c4ccc(C(=O)NS(=O)(=O)c5ccc(NCCSc6ccccc6)c(C(F)(F)F)c5)cc4)CC3)c(OC)c2)c1 [B2R054-01, 4-[4-[[4-(5-Ethoxypyridin-3-yl)-2-methoxyphenyl]methyl]piperazin-1-yl]-N-[4-(2-phenylsulfanylethylamino)-3-(trifluoromethyl)phenyl]sulfonylbenzamide] | 3.3 | −0.8
CCOc1cccc(-c2cc(CN3CCN(c4ccc(C(=O)NS(=O)(=O)c5ccc(NCCSc6ccccc6)c(C(F)(F)F)c5)cc4)CC3)cc(OCC)c2)c1 [B2R055-01, 4-[4-[[3-Ethoxy-5-(3-ethoxyphenyl)phenyl]methyl]piperazin-1-yl]-N-[4-(2-phenylsulfanylethylamino)-3-(trifluoromethyl)phenyl]sulfonylbenzamide] | −3.3 | 6.3
CCOc1cncc(-c2cc(CN3CCN(c4ccc(C(=O)NS(=O)(=O)c5ccc(NCCSc6ccccc6)c(C(F)(F)F)c5)cc4)CC3)cc(OCC)c2)c1 [B2R056-01, 4-[4-[[3-Ethoxy-5-(5-ethoxypyridin-3-yl)phenyl]methyl]piperazin-1-yl]-N-[4-(2-phenylsulfanylethylamino)-3-(trifluoromethyl)phenyl]sulfonylbenzamide] |  | −63.9
CCOc1cccc(-c2cc(CN3CCN(c4ccc(C(=O)NS(=O)(=O)c5ccc(NCCSc6ccccc6)c(C(F)(F)F)c5)cc4)CC3)cc(OC(C)C)c2)c1 [B2R057-01, 4-[4-[[3-(3-Ethoxyphenyl)-5-propan-2-yloxyphenyl]methyl]piperazin-1-yl]-N-[4-(2-phenylsulfanylethylamino)-3-(trifluoromethyl)phenyl]sulfonylbenzamide] | 5.7 | −5.1
